One assay deals with T1, hGCGR (Homo sapiens, UniProt P47871).
T1 construct: expressed in transfected cells
Nature of the assay: Functional cAMP formation (HTRF) in HEK-293 clonal cells expressing hGCGR, 0.1% bovine casein, without or with 1.0% human serum albumin. In kind it is cell-based. Particulars: read-out: hGCGR EC50, nM (SEM, n). In outline:
(§1)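 Cells were stimulated with peptide for 30 min at 37° C, then lysed in buffer carrying cAMP-d2 and anti-cAMP Eu3+-cryptate for a competitive HTRF read after at least 60 min at room temperature. The 665/620 nm ratio was converted to nM cAMP against a standard curve.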
(In general: cAMP levels reflect the balance of adenylyl cyclase and phosphodiesterase activity.)

The next assay concerns the target T2, hGIPR (Homo sapiens, UniProt P48546).
T2 construct: expressed in transfected cells
T2 sequence (P48546 22-466): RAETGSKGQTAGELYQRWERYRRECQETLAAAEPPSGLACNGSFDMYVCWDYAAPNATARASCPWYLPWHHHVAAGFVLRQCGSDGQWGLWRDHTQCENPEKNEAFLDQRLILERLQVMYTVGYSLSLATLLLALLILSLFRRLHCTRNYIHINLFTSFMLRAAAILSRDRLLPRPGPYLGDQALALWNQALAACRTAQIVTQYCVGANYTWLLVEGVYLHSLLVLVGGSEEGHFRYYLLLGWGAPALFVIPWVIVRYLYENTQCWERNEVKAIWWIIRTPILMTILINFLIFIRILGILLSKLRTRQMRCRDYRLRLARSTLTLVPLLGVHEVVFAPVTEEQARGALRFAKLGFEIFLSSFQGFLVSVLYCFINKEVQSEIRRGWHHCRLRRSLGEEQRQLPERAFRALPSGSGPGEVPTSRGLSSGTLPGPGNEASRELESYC
Nature of the assay: Functional cAMP formation (HTRF) in HEK-293 clonal cells expressing hGIPR, 0.1% bovine casein, without or with 1.0% human serum albumin. In kind it is cell-based. The note with it: for EC50: read-out: hGIPR EC50, nM (SEM, n); for Emax: read-out: hGIPR Emax, % ± SEM. In outline:
as §1

For a further assay, the target named is hGLP-1R (Homo sapiens, UniProt P43220). Kind of assay: Functional cAMP formation (HTRF) in HEK-293 clonal cells expressing hGLP-1R, 0.1% bovine casein, without or with 1.0% human serum albumin. Type of assay: cell-based. Details: expressed in transfected cells. Particulars: for EC50: geometric mean, read-out: hGLP-1R EC50, nM (SEM, n); for Emax: read-out: hGLP-1R Emax, % ± SEM. The gist of the method: as §1

Assay [1] addresses T3, human Gcg receptor (hGcgR) (Homo sapiens, UniProt P47871).
T3 construct: expressed in transfected cells; crude membranes
Kind of assay: [125I]-Glucagon binding, SPA with membranes of HEK293 cells expressing hGcgR. The note with it: human GcgR; geometric mean (SEM, n); read-out: Binding Affinity Ki, nM (SEM, n) hGCGR.

[2] abbreviates: 0.1% bovine casein and 1.0% human serum albumin, 37° C., geometric mean.
[3] abbreviates: cAMP, incubated at 37° C., 0.1% bovine casein (no human serum albumin), geometric mean.
The mark [4] stands for this setting: HEK293, 0.1% bovine casein and 1.0% human serum albumin, 37° C., percent of maximal response to GIP(1-42)NH2.
[5] abbreviates: HEK293, percent of maximal response to GIP(1-42)NH2, 37° C., 0.1% bovine casein, arithmetic mean.
Setting [6] is: 0.1% bovine casein and 1.0% human serum albumin, 37° C.
[7] abbreviates: cAMP, incubated at 37° C., 0.1% bovine casein (no human serum albumin).
Where [8] appears, read: cAMP, 37° C., 0.1% bovine casein (no human serum albumin), geometric mean.
Where [9] appears, read: cAMP, 37° C., 0.1% bovine casein and 1.0% human serum albumin, geometric mean (SEM, n).

Like-named read-outs stand apart in the source and are kept apart here.

T1 sequence (P47871 26-477): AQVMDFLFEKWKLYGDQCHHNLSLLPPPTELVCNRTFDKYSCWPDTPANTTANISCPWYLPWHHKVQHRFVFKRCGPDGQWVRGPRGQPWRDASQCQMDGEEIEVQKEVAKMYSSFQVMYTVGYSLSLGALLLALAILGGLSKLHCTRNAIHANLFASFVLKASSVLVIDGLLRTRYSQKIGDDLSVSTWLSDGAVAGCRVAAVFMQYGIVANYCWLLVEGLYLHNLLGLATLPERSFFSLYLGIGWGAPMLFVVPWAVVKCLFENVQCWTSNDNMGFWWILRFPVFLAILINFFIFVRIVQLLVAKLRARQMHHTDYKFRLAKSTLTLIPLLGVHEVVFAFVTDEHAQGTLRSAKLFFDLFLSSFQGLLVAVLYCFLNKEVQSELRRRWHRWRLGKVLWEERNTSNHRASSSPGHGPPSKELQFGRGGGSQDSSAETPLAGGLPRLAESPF
T3 sequence (P47871 26-477): as above
hGLP-1R, sequence (P43220 24-463): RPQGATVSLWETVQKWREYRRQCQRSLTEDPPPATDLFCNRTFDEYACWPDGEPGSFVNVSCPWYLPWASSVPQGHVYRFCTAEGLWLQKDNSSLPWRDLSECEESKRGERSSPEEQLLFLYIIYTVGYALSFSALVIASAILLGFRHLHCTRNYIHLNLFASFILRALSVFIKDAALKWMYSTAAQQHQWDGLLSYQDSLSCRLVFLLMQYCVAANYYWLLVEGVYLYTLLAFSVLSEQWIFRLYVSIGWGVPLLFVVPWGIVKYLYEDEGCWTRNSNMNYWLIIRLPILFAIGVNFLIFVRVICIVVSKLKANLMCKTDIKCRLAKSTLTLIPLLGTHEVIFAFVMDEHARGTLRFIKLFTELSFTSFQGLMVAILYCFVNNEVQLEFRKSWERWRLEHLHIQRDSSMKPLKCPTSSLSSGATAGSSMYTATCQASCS

Take `CC[C@H](C)[C@H](NC(=O)[C@H](CC(C)C)NC(=O)[C@](C)(Cc1ccc(O)cc1)NC(=O)[C@@H](CCC(=O)O)NC(=O)[C@@H](NC(=O)[C@H](Cc1ccccc1)NC(=O)[C@H](CCC(=O)O)NC(=O)C(C)(C)NC(=O)[C@H](CCC(N)=O)NC(=O)[C@H](C)NC(=O)[C@H](CCCCNC(=O)COCCOCCNC(=O)COCCOCCNC(=O)CC[C@H](NC(=O)CCCCCCCCCCCCC(=O)O)C(=O)O)NC(=O)[C@H](CCCN)NC(=O)[C@H](CC(=O)O)NC(=O)[C@H](CC(C)C)NC(=O)[C@](C)(CC(C)C)NC(=O)[C@@H](NC(=O)[C@H](CO)NC(=O)[C@H](Cc1ccncc1)NC(=O)[C@H](CC(=O)O)NC(=O)[C@H](CO)NC(=O)[C@@H](NC(=O)[C@](C)(Cc1ccccc1F)NC(=O)[C@@H](NC(=O)CNC(=O)[C@H](CCC(=O)O)NC(=O)C(C)(C)NC(=O)[C@@H](N)Cc1ccc(O)cc1)[C@@H](C)O)[C@@H](C)O)[C@@H](C)CC)[C@@H](C)CC)C(=O)N[C@@H](CCC(=O)O)C(=O)NCC(=O)NCC(=O)N1CCC[C@H]1C(=O)N[C@@H](CO)C(=O)N[C@@H](CO)C(=O)NCC(=O)N[C@@H](C)C(=O)N1CCC[C@H]1C(=O)N1CCC[C@H]1C(=O)N1CCC[C@H]1C(=O)N[C@@H](CO)C(=O)N[C@@H](CCCCNC(=O)COCCOCCNC(=O)COCCOCCNC(=O)CC[C@H](NC(=O)CCCCCCCCCCCCC(=O)O)C(=O)O)C(N)=O` [Example 19]: the EC50 at hGCGR (setting [2]) was > 9950 nM; on hGCGR (setting [3]) it was > 9950 nM; at hGIPR (setting [2]) it was 0.438 nM; at hGIPR (setting [3]), 0.0158 nM; on hGLP-1R (setting [6]) it was 24.4 nM; at hGLP-1R (setting [7]), 1.34 nM. Also, the maximal effect (Emax) at hGIPR (setting [4]) amounted to 89.7 ± 2.13%; on hGIPR (setting [5]) it was 96.6 ± 2.7%. In assay [1], the Ki was > 966 nM.
In the case of `CC[C@H](C)[C@H](NC(=O)[C@H](CC(C)C)NC(=O)[C@](C)(Cc1ccc(O)cc1)NC(=O)[C@@H](CCC(=O)O)NC(=O)[C@@H](NC(=O)[C@H](Cc1ccccc1)NC(=O)[C@H](CCC(=O)O)NC(=O)C(C)(C)NC(=O)[C@H](CCC(N)=O)NC(=O)[C@H](C)NC(=O)[C@H](CCCCNC(=O)COCCOCCNC(=O)CC[C@H](NC(=O)CCCCCCCCCCCCC(=O)O)C(=O)O)NC(=O)[C@H](CCCN)NC(=O)[C@H](CC(=O)O)NC(=O)[C@H](CC(C)C)NC(=O)[C@](C)(CC(C)C)NC(=O)[C@@H](NC(=O)C(C)(C)NC(=O)[C@H](Cc1ccncc1)NC(=O)[C@H](CC(=O)O)NC(=O)[C@H](CO)NC(=O)[C@@H](NC(=O)[C@](C)(Cc1ccccc1F)NC(=O)[C@@H](NC(=O)CNC(=O)[C@H](CCC(=O)O)NC(=O)C(C)(C)NC(=O)[C@@H](N)Cc1ccc(O)cc1)[C@@H](C)O)[C@@H](C)O)[C@@H](C)CC)[C@@H](C)CC)C(=O)N[C@@H](CCCCNC(=O)COCCOCCNC(=O)CC[C@H](NC(=O)CCCCCCCCCCCCC(=O)O)C(=O)O)C(=O)NCC(=O)NCC(=O)N1CCC[C@H]1C(=O)N[C@@H](CO)C(=O)N[C@@H](CO)C(=O)NCC(=O)N[C@@H](C)C(=O)N1CCC[C@H]1C(=O)N1CCC[C@H]1C(=O)N1CCC[C@H]1C(=O)N[C@@H](CO)C(N)=O` [Example 337], the half-maximal effective concentration (EC50) is > 10100 nM at hGCGR (setting [8]); > 10100 nM at hGCGR (setting [9]); 0.0151 nM at hGIPR (setting [8]); 2.65 nM at hGIPR (setting [9]); 0.444 nM at hGLP-1R (cAMP, 37° C., 0.1% bovine casein (no human serum albumin)). In addition, the maximal response (Emax) was determined as 86.8% on hGIPR (HEK293, cAMP, 37° C., 0.1% bovine casein and 1.0% human serum albumin, percent of maximal response to GIP(1-42)NH2); 100% at hGLP-1R (HEK293, cAMP, 37° C., 0.1% bovine casein and 1.0% human serum albumin, percent of maximal response to GLP-1(7-36)NH2). Also, in assay [1], the Ki is > 957 nM.
With `CC[C@H](C)[C@H](NC(=O)[C@H](CC(C)C)NC(=O)[C@](C)(Cc1ccc(O)cc1)NC(=O)[C@@H](CCC(=O)O)NC(=O)[C@@H](NC(=O)[C@H](Cc1ccccc1)NC(=O)[C@H](CCC(=O)O)NC(=O)C(C)(C)NC(=O)[C@H](CCC(N)=O)NC(=O)[C@H](C)NC(=O)[C@H](CCCCNC(=O)COCCOCCNC(=O)COCCOCCNC(=O)CC[C@H](NC(=O)CCCCCCCCCCCCC(=O)O)C(=O)O)NC(=O)[C@H](CCCN)NC(=O)[C@H](CC(=O)O)NC(=O)[C@H](CC(C)C)NC(=O)[C@](C)(CC(C)C)NC(=O)[C@@H](NC(=O)[C@H](CO)NC(=O)[C@](C)(Cc1ccccc1)NC(=O)[C@H](CC(=O)O)NC(=O)[C@H](CO)NC(=O)[C@@H](NC(=O)[C@](C)(Cc1ccccc1)NC(=O)[C@@H](NC(=O)CNC(=O)[C@H](CCC(=O)O)NC(=O)C(C)(C)NC(=O)[C@@H](N)Cc1ccc(O)cc1)[C@@H](C)O)[C@@H](C)O)[C@@H](C)CC)[C@@H](C)CC)C(=O)N[C@@H](CCC(=O)O)C(=O)NCC(=O)NCC(=O)N[C@@H](CCCCNC(=O)COCCOCCNC(=O)COCCOCCNC(=O)CC[C@H](NC(=O)CCCCCCCCCCCCC(=O)O)C(=O)O)C(=O)N[C@@H](CO)C(=O)N[C@@H](CO)C(=O)NCC(=O)N[C@@H](C)C(=O)N1CCC[C@H]1C(=O)N1CCC[C@H]1C(=O)N1CCC[C@H]1C(=O)N[C@@H](CO)C(N)=O` [Example 45], the concentration giving a half-maximal response (EC50) at hGCGR (setting [2]) is > 9950 nM; at hGCGR (setting [3]) it was > 9950 nM; at hGLP-1R (setting [7]) it was 9.18 nM. For the same molecule, the Emax at hGIPR (setting [4]) came to 72.5%; at hGIPR (setting [5]), 91.3 ± 1.04%; on hGLP-1R (HEK293, 0.1% bovine casein and 1.0% human serum albumin, 37° C., percent of maximal response to GLP-1(7-36)NH2), 109%; on hGLP-1R (HEK293, percent of maximal response to GLP-1(7-36)NH2, 37° C., 0.1% bovine casein, arithmetic mean) it was 85.7 ± 8.37%. Further, the inhibition constant (Ki) in assay [1] is > 966 nM.
In the case of `CC[C@H](C)[C@H](NC(=O)[C@H](CC(C)C)NC(=O)[C@](C)(Cc1ccc(O)cc1)NC(=O)[C@@H](CCC(=O)O)NC(=O)[C@@H](NC(=O)[C@H](Cc1ccccc1)NC(=O)[C@H](CCC(=O)O)NC(=O)C(C)(C)NC(=O)[C@H](CCC(N)=O)NC(=O)[C@H](C)NC(=O)[C@H](CCCCNC(=O)CC[C@H](NC(=O)COCCOCCNC(=O)COCCOCCNC(=O)CCCCCCCCCCCCC(=O)O)C(=O)O)NC(=O)[C@H](CCCN)NC(=O)[C@H](CC(=O)O)NC(=O)[C@H](CC(C)C)NC(=O)[C@](C)(CC(C)C)NC(=O)[C@@H](NC(=O)[C@H](CO)NC(=O)[C@H](Cc1ccncc1)NC(=O)[C@H](CC(=O)O)NC(=O)[C@H](CO)NC(=O)[C@@H](NC(=O)[C@](C)(Cc1ccccc1F)NC(=O)[C@@H](NC(=O)CNC(=O)[C@H](CCC(=O)O)NC(=O)C(C)(C)NC(=O)[C@@H](N)Cc1ccc(O)cc1)[C@@H](C)O)[C@@H](C)O)[C@@H](C)CC)[C@@H](C)CC)C(=O)N[C@@H](CCC(=O)O)C(=O)NCC(=O)NCC(=O)N[C@@H](CCCCNC(=O)CC[C@H](NC(=O)COCCOCCNC(=O)COCCOCCNC(=O)CCCCCCCCCCCCC(=O)O)C(=O)O)C(=O)N[C@@H](CO)C(=O)N[C@@H](CO)C(=O)NCC(=O)N[C@@H](C)C(=O)N1CCC[C@H]1C(=O)N1CCC[C@H]1C(=O)N1CCC[C@H]1C(=O)N[C@@H](CO)C(N)=O` [Example 41], the EC50 on hGCGR (setting [2]) is > 9950 nM; on hGCGR (setting [3]) it was > 9950 nM; on hGIPR (setting [2]), 0.405 nM; at hGIPR (setting [3]), 0.0108 nM; at hGLP-1R (setting [6]), 27.2 nM; on hGLP-1R (setting [7]), 0.691 nM. Further, the maximal response (Emax) at hGIPR (setting [4]) was 88.5 ± 0.638%. Moreover, in assay [1], the Ki was > 957 nM.

Broadly, the EC50 is the concentration giving half of the maximal effect. What is called Emax is the maximal effect, on the per cent scale that the assay sets. The term Ki denotes a measure of affinity in units of concentration, obtained from inhibition or displacement.

The record behind these values is US20230265151A1, “GIP/GLP1 CO-AGONIST COMPOUNDS” (priority 2020, published 2023).
